From patent publication US5438046A, “N-heteroaryl substituted derivatives of propanamide useful in the treatment of cardiovascular diseases” (Zambon Group S.p.A., priority 1993, dated 1995) come the findings set out here.

For the test, the target named is T1, endothelin converting enzyme (ECE) (Oryctolagus cuniculus, UniProt A0A5F9CTJ8).
T1 construct: The left saphenous artery was removed and cleaned of the surrounding tissue, cut into 2-3 mm length rings; from tissue; host or cells: left saphenous artery rings of male New Zealand rabbits
T1 sequence (A0A5F9CTJ8 1-783): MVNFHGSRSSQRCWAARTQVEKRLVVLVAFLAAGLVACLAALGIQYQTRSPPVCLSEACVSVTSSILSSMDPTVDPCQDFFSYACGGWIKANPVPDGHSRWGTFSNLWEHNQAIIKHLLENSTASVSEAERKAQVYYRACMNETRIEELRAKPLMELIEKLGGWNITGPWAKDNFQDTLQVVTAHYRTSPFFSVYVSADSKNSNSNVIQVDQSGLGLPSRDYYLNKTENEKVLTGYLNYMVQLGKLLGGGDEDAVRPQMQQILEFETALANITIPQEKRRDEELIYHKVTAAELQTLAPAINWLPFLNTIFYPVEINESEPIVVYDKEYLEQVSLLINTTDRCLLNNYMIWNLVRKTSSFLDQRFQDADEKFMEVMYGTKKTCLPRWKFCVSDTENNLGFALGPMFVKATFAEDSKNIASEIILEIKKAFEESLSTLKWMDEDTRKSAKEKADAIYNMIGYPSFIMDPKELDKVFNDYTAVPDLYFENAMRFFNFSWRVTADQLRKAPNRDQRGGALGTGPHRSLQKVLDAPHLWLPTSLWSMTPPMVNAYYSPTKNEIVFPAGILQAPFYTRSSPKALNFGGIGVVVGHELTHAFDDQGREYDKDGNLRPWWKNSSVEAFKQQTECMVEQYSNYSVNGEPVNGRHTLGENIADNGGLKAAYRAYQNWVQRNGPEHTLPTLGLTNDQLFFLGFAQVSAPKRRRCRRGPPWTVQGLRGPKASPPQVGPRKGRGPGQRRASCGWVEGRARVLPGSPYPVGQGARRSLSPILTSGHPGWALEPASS
The test is described as follows: In vitro ECE-inhibitory activity (inhibition of Big endothelin response in rabbit left saphenous artery rings). It counts as cell-based, New Zealand rabbits. The following applies: human Big endothelin 3×10^-8 M, compound contact 30 minutes. As to the method: Male New Zealand rabbits (2.5-3 Kg) were sacrificed with an excess of pentobarbital and blood was drawn. […] This solution was composed of (mM); NaCl, 118; KCl, 4.7; CaCl2, 2.5; KH2 PO4, 1.2; MgSO4, 1.2; NaHCO3, […]; glucose, 11. The preparations were kept under tension and readjusted to 1 g during the equilibration period (1 hour).
After said period, the preparations were exposed to a submaximal concentration of norepinephrine 1 μM which was repeated every 30 minutes until the response was stable. A concentration of acetylcholine 10 μM on the contraction of norepinephrine verified the presence of the endothelium.
After 30 minutes from the last contraction due to norepinephrine, a concentration of human Big endothelin 3×10^-8 M was administered. […] The percentage of ECE-inhibition was expressed as IC50 value (nM).

As to `CC(C)C[C@H](NP(=O)(O)O[C@@H]1O[C@@H](C)[C@H](O)[C@@H](O)[C@H]1O)C(=O)N[C@@H](Cc1c[nH]c2ccccc12)C(=O)O` [Phosphoramidon, N-[N-[[(6-deoxy-α-L-mannopyranosyl)oxy]hydroxyphos-phinyl]-l-leucyl]-L-tryptophan], the midpoint of inhibition, the IC50, lay at 50 nM.

By IC50 is commonly meant the concentration at which inhibition is half-maximal. Read a low IC50 as greater potency in that assay.
